Test results: PMC8484140 (Targeted Oncology, 2021)

Experiment: Safety evaluation
Format: in vivo, human
[1] = Stage II, 3 mg/week + exemestane 25 mg/day, n=2
[2] = Stage II, 5 mg/week + exemestane 25 mg/day, n=14

For `Nc1ccccc1NC(=O)c1ccc(CNC(=O)OCc2cccnc2)cc1` [Entinostat], the “Tolerability of entinostat in combination with exemestane” value (Chinese patients) was “well tolerated”, the “AKP elevation, entinostat-related AE of all grades” value [1] was 0 No. (%) and the “ALT elevation, entinostat-related AE of all grades” value [1] was 0 No. (%). The “AST elevation, entinostat-related AE of all grades” value [1] was 0 No. (%), the “Abdominal pain, entinostat-related AE of all grades” value [1] was 0 No. (%) and the “Anemia, entinostat-related AE of all grades” value [1] was 0 No. (%). The “Back pain, entinostat-related AE of all grades” value [1] was 0 No. (%), the “Chest pain, entinostat-related AE of all grades” value [1] was 0 No. (%) and the “Creatine increase, entinostat-related AE of all grades” value [1] was 0 No. (%). For the same compound, the “Creatinine phosphokinase increase, entinostat-related AE of all grades” value [1] was 0 No. (%), the “Debilitation, entinostat-related AE of all grades” value [1] was 0 No. (%) and the “Diarrhea, entinostat-related AE of all grades” value [1] was 0 No. (%). For the same compound, the “Fatigue, entinostat-related AE of all grades” value [1] was 0 No. (%), the “Flatulence, entinostat-related AE of all grades” value [1] was 0 No. (%) and the “Headache, entinostat-related AE of all grades” value [1] was 0 No. (%). For the same compound, the “Hypoalbuminemia, entinostat-related AE of all grades” value [1] was 0 No. (%), the “Hypocalcemia, entinostat-related AE of all grades” value [1] was 0 No. (%) and the “Hypokalemia, entinostat-related AE of all grades” value [1] was 0 No. (%). The “Hypoproteinemia, entinostat-related AE of all grades” value [1] was 0 No. (%), the “LDH increase, entinostat-related AE of all grades” value [1] was 0 No. (%) and the “Leukopenia, entinostat-related AE of all grades” value [1] was 0 No. (%). For the same compound, the “Limb pain, entinostat-related AE of all grades” value [1] was 0 No. (%), the “Nausea, entinostat-related AE of all grades” value [1] was 0 No. (%) and the “Neutropenia, entinostat-related AE of all grades” value [1] was 2 (100) No. (%). The “Palpitation, entinostat-related AE of all grades” value [1] was 0 No. (%), the “Serum Ca^2+ decrease, entinostat-related AE of all grades” value [1] was 0 No. (%) and the “Serum Na+ decrease, entinostat-related AE of all grades” value [1] was 0 No. (%). The “Serum albumin decrease, entinostat-related AE of all grades” value [1] was 0 No. (%), the “Serum phosphate decrease, entinostat-related AE of all grades” value [1] was 0 No. (%) and the “Serum urea increase, entinostat-related AE of all grades” value [1] was 0 No. (%). The “Thrombocytopenia, entinostat-related AE of all grades” value [1] was 0 No. (%), the “Γ-GT elevation, entinostat-related AE of all grades” value [1] was 0 No. (%) and the “α-HBDH elevation, entinostat-related AE of all grades” value [1] was 0 No. (%). The “Grade 3 AE” value (Stage II, 3 mg/week group + exemestane) was “no grade 3 AE occurred”, the “CTCAE grade 3 arrhythmia requiring medical care” value (Stage II, 5 mg entinostat group, 1/14) was 7.1% and the “AKP elevation, entinostat-related AE of all grades” value [2] was 4 (28.6) No. (%). The “ALT elevation, entinostat-related AE of all grades” value [2] was 0 No. (%), the “AST elevation, entinostat-related AE of all grades” value [2] was 2 (14.3) No. (%) and the “Abdominal pain, entinostat-related AE of all grades” value [2] was 0 No. (%). For the same compound, the “Anemia, entinostat-related AE of all grades” value [2] was 5 (35.7) No. (%), the “Back pain, entinostat-related AE of all grades” value [2] was 0 No. (%) and the “Chest pain, entinostat-related AE of all grades” value [2] was 0 No. (%). For the same compound, the “Creatine increase, entinostat-related AE of all grades” value [2] was 4 (28.6) No. (%), the “Creatinine phosphokinase increase, entinostat-related AE of all grades” value [2] was 6 (42.9) No. (%) and the “Debilitation, entinostat-related AE of all grades” value [2] was 0 No. (%). The “Diarrhea, entinostat-related AE of all grades” value [2] was 3 (21.4) No. (%), the “Fatigue, entinostat-related AE of all grades” value [2] was 0 No. (%) and the “Flatulence, entinostat-related AE of all grades” value [2] was 0 No. (%). The “Headache, entinostat-related AE of all grades” value [2] was 0 No. (%), the “Hypoalbuminemia, entinostat-related AE of all grades” value [2] was 3 (21.4) No. (%) and the “Hypocalcemia, entinostat-related AE of all grades” value [2] was 2 (14.3) No. (%). For the same compound, the “Hypokalemia, entinostat-related AE of all grades” value [2] was 2 (14.3) No. (%), the “Hypoproteinemia, entinostat-related AE of all grades” value [2] was 3 (21.4) No. (%) and the “LDH increase, entinostat-related AE of all grades” value [2] was 2 (14.3) No. (%). The “Leukopenia, entinostat-related AE of all grades” value [2] was 10 (71.4) No. (%), the “Limb pain, entinostat-related AE of all grades” value [2] was 2 (14.3) No. (%) and the “Nausea, entinostat-related AE of all grades” value [2] was 0 No. (%). For the same compound, the “Neutropenia, entinostat-related AE of all grades” value [2] was 10 (71.4) No. (%), the “Palpitation, entinostat-related AE of all grades” value [2] was 0 No. (%) and the “Serum Ca^2+ decrease, entinostat-related AE of all grades” value [2] was 2 (14.3) No. (%). For the same compound, the “Serum Na+ decrease, entinostat-related AE of all grades” value [2] was 2 (14.3) No. (%), the “Serum albumin decrease, entinostat-related AE of all grades” value [2] was 2 (14.3) No. (%) and the “Serum phosphate decrease, entinostat-related AE of all grades” value [2] was 7 (50) No. (%). The “Serum urea increase, entinostat-related AE of all grades” value [2] was 2 (14.3) No. (%), the “Thrombocytopenia, entinostat-related AE of all grades” value [2] was 6 (42.9) No. (%) and the “Γ-GT elevation, entinostat-related AE of all grades” value [2] was 3 (21.4) No. (%). For the same compound, the “α-HBDH elevation, entinostat-related AE of all grades” value [2] was 2 (14.3) No. (%) and the “Number of CTCAE grade ≥ 3 AEs” value (Stage II, 5 mg/week group + exemestane) was 38.
